In patent publication EP0615449B1, “USE OF FLAVINE DERIVATIVES IN THE PRODUCTION OF MEDICO-SURGICAL SANITARY ARTICLES AND SANITARY ARTICLES SO OBTAINED” (BERQUE, Jean, priority 1992, dated 1994):

Key:
rougeole = conditions: traitement par la vitamine A, AFRIQUE DU SUD; cited from earlier work
HIV [1] = test: In vitro antiviral tests of FAD compared with AZT and DDI; format: cell-based
[2] = Cytotoxicity observed in the in vitro tests of FAD; format: cell-based
[3] = vulcanisation à chaud du latex; cited from earlier work
VIH = conditions: cited from earlier work
[4] = test system: cellules CEM-SS infectées par HIV1; test: In vitro anti-viral test on HIV1-infected CEM-SS cells (Institut de Virologie, Strasbourg), read out as reverse transcriptase inhibition; format: cell-based; conditions: dilution au 1/5000è
Excerpt: Début 1992, un test "in vitro" a été effectué par l'Institut de Virologie de la Faculté de Strasbourg. Le test est positif à la dilution au 1/5000è sur les cellules CEM-SS infectées par HIV1; l'effet anti-viral est objectivé par une inhibition de la transcriptase reverse supérieure à 50%.

HIV [5] = test: Clinical observation, intravenous vitamin B2 in an AIDS patient (stage IV); format: in vivo; conditions: malade sidéen stade IV; voie intra-veineuse, injection unique de 20 mg par jour
Excerpt: (§1) L'idée de départ découlait donc de constatations expérimentales concernant la photosynthèse protéique à l'échelle animale et la photosynthèse virale. On a donc utilisé initialement la vitamine B2 en fonction de ses propriétés d'absorption de la lumière avec l'idée d'interposer un écran photoprotecteur entre le rayonnement solaire UV parvenant à l'organisme et les virus HIV et HSV dont les patients étaient porteurs. Ce concept a été formulé dans le but d'"éteindre" ces virus dont il semblait, en fonction des hypothèses émises, que le rayonnement ultra-violet activait tant leur synthèse que leur replication. Les effets cliniques spectaculaires et très rapidement obtenus ont confirmé l'hypothèse de départ. C'est par la suite que le Demandeur s'est rendu compte qu'outre les propriétés photoprotectrices de la vitamine B2, la formule biochimique diphosphonucléotidique de son métabolite actif, le FAD, jouait également un rôle important.

Herpès génital = test: Clinical observation, intravenous vitamin B2 in a patient with recurrent genital herpes; format: in vivo; conditions: récurrence importante d'un Herpès génital; voie intra-veineuse, injection unique de 20 mg par jour
Excerpt: as §1

[6] = lait exposé à la lumière, même dans un emballage transparent; cited from earlier work

For CC1=C(/C=C/C(C)=C/C=C/C(C)=C/CO)C(C)(C)CCC1 [vitamine A], the “amélioration de la rougeole” value (rougeole) is listed as “amélioration notable”.

In the case of Cc1cc2nc3c(=O)[nH]c(=O)nc-3n(C[C@H](O)[C@H](O)[C@H](O)COP(=O)(O)OP(=O)(O)OC[C@H]3O[C@@H](n4cnc5c(N)ncnc54)[C@H](O)[C@@H]3O)c2cc1C [FAD, flavine -adenine dinucleotide], the activité in vitro (HIV [1]) is given as “aussi actif in vitro que l'AZT et plus actif que le DDI”, the cyto-toxicité [2] is given as “sans aucune cyto-toxicité” and the stabilité thermique [3] is given as “thermostables”.

For C=CC1=C(C)c2cc3[n-]c(cc4[n-]c(cc5nc(cc1n2)C(C)=C5C=C)c(C)c4CCC(=O)O)c(CCC(=O)O)c3C.[Fe+2] [Hème], the “activité anti-VIH in vitro” value (VIH) is listed as “exerce une activité anti-VIH in vitro”.

In the case of acides biliaires, the “activité anti-VIH in vitro” value (VIH) is given as “actifs in vitro sur le VIH”.

In the case of N[C@@H](CCC(=O)N[C@@H](CS)C(=O)NCC(=O)O)C(=O)O [glutathion], the “activité anti-VIH in vitro” value (VIH) is given as “exerce une activité anti-VIH in vitro”.

In the case of Cc1cc2nc3c(=O)[nH]c(=O)nc-3n(C[C@H](O)[C@H](O)[C@H](O)CO)c2cc1C [vitamine B2, Riboflavine], the “inhibition de la transcriptase reverse” value [4] is reported as over 50%, the “test "in vitro" (effet anti-viral)” value [4] is reported as “positif” and the effets cliniques (HIV [5]) is reported as “résultats spectaculaires”. For the same compound, the effets cliniques (Herpès génital) was “résultats spectaculaires” and the “Riboflavine détruite” value [6] was 85%.
